Format in all cases: protein-complex assay
Assay [1] concerns the target CDK6/cyclin D1 (Homo sapiens, UniProt Q00534). In words: (§1) Inhibition of CDK6/Cyclin D1 by FRET assay.
The target in assay [2] is Cyclin-dependent kinase 4/cyclin D1 (Homo sapiens, UniProt P11802). In words: Inhibition of CDK4/Cyclin D1 by FRET assay.
Assay [3] concerns the target CDK6/cyclin D1 (Homo sapiens, UniProt P24385+Q00534). Described as §1.

Cyclin-dependent kinase 4/cyclin D1, sequence (P11802 whole entry): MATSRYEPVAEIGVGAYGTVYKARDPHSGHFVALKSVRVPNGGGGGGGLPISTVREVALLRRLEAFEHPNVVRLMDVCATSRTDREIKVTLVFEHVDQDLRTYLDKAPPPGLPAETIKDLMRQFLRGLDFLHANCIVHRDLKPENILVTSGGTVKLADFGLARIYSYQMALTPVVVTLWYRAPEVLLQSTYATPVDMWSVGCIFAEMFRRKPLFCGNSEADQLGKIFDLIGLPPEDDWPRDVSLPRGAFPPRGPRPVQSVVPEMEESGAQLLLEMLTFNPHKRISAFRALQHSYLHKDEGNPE
Cyclin-dependent kinase 4/cyclin D1, sequence (P24385 whole entry, further chain): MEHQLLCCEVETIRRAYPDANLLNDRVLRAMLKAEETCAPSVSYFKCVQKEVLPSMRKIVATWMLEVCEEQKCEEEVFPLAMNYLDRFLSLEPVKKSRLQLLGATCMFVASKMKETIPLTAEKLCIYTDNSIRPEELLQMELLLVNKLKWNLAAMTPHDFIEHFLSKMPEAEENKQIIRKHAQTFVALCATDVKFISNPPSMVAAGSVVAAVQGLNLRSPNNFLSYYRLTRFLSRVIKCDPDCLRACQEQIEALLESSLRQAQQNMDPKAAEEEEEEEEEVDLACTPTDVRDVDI
CDK6/cyclin D1 (Homo sapiens, UniProt P24385+Q00534), sequence (P24385 whole entry): as the sequence (P24385 whole entry, further chain) above
CDK6/cyclin D1 (Homo sapiens, UniProt P24385+Q00534), sequence (Q00534 whole entry): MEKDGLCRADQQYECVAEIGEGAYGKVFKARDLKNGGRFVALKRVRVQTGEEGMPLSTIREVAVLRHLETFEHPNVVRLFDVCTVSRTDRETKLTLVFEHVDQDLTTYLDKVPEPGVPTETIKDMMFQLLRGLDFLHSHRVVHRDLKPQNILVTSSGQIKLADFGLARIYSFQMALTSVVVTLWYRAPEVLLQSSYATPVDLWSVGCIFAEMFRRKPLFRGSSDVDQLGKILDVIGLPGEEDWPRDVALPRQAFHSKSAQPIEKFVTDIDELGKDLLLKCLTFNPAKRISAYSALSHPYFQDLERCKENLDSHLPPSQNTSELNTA
CDK6/cyclin D1 (Homo sapiens, UniProt Q00534), sequence (P24385 whole entry): as the sequence (P24385 whole entry, further chain) above
CDK6/cyclin D1 (Homo sapiens, UniProt Q00534), sequence (Q00534 whole entry): as the sequence (Q00534 whole entry) above

Turning to `COc1cc(NCCCN(CCC(C)C)CCC(C)C)c2ncccc2c1`, the figures for the IC50 (on CDK6/cyclin D1 [1]; in assay [2]) were 325 µM and 162 µM, respectively.

Take `COc1cc(NCCN(CC(C)C)CC(C)C)c2ncc(C)cc2c1`: the values for the 50% inhibitory concentration (IC50) result (on CDK6/cyclin D1 [3]; in assay [2]) were “Not Active” and 128 µM, respectively.

(Values after ChEMBL document CHEMBL1153127, “p16(INK4a) Peptide mimetics identified via virtual screening” (Bioorg Med Chem Lett, 2010).)
